Patent US10973834B2, “EP4 inhibitors and use thereof” (Arrys Therapeutics, Inc., priority 2018, dated 2021)

Columns and labels:
[1] = tested on: CT-26 mouse colon adenocarcinoma; assay: Antitumor activity of Compound B alone and with anti-PD1 in the CT-26 model, additional experiment; type: in vivo, BALB/c mice; conditions: CT-26 tumors; Compound B 15 mg/kg BID po; anti-PD1 10 mg/kg ip BIW; n=7/group; FIG. 5
Protocol: (§1) The antitumor activity of Compound B as a single agent and combined with a mouse anti-PD1 antibody was evaluated in the CT-26 mouse colon adenocarcinoma model grown in BALB/c mice in an additional experiment. Mice were inoculated subcutaneously in the right flank with 5×10^5 tumor cells. When tumors reached an average size of 91 mm^3 dosing was initiated. The dosing regimens in the 4 separate cohorts comprising 7 mice each are as follows: […]

CT-26 tumors = assay: Immune cell composition of CT-26 tumors by flow cytometry; type: in vivo, BALB/c mice; conditions: after 7 days of dosing, Compound B 15 mg/kg BID, anti-PD1 10 mg/kg Q3D
Protocol: The immune cell composition of Compound B as a single agent and combined with a mouse anti-PD1 antibody was evaluated in the CT-26 mouse colon adenocarcinoma model grown in BALB/c mice. Mice were inoculated subcutaneously in the right flank with 5×10^5 tumor cells. When tumors reached an average size of 85 mm^3 dosing was initiated. The dosing regimens in the 4 separate cohorts comprising 10 mice each are listed as follows:
After dosing animals for 7 days, tumors were resected and used to prepare single cell suspensions. Live cells representing tumor and immune cells were stained with cocktails of antibodies targeting multiple immune cell markers (anti-CD45, anti-CD3, anti-CD4, anti-CD8, anti-CD25, anti-FoxP3, anti-PD-1, anti-CD11c) conjugated to different fluorescent tags. The stained cells were fixed in 4% paraformaldehyde and quantified using a multi-color flow cytometer (Fortessa). The data was analyzed with FloJo software.

4T1 mouse breast cancer [2] = assay: Antitumor activity of Compound B alone and with anti-CTLA4 in the 4T1 model; type: in vivo, BALB/c mice; conditions: 4T1 tumors; Compound B 15 mg/kg BID; n=10/group; FIG. 3
Excerpt: Mice were inoculated subcutaneously in the right flank with 3×10^5 tumor cells. When tumors reached an average size of 100 mm^3 (7 days after tumor cell inoculation) dosing was initiated.

4T1 mouse breast cancer [3] = assay: Antitumor activity of Compound B alone and with anti-PD1 in the 4T1 model, additional experiment; type: in vivo, BALB/c mice; conditions: 4T1 tumors; Compound B 15 mg/kg BID po; anti-PD1 10 mg/kg ip BIW; n=7/group; FIG. 6
Protocol: as §1, with “4T1” for “CT-26”, “breast cancer” for “colon adenocarcinoma”, “3×10^5” for “5×10^5”, “97” for “91”

[4] = tested on: CT-26 mouse colon adenocarcinoma; assay: Antitumor activity of Compound B alone and with anti-PD-1 in the CT-26 model; type: in vivo, BALB/c mice
Protocol: as §1, with “anti-PD-1” for “anti-PD1”, “mice.” for “mice in an additional experiment.”, “71” for “91”, “mm^3 (6 days after tumor cell inoculation)” for “mm^3”, “8” for “4”, “10” for “7”

CT26 tumor cells = assay: CT26 re-inoculation of complete responders versus tumor-naive mice; type: in vivo; conditions: complete responders compared with 6 tumor-naive mice
Excerpt: CT26 tumor cells were inoculated into 6 tumor-naive mice or complete responders of CT26 tumor-bearing mice previously treated with Compound B and anti-PD-1 alone or in combination.

[5] = 99 days after tumor inoculation

Q: How did the “tumor growth kinetics during the period of dosing” value [1] turn out when C[C@H](NC(=O)c1cc(Cl)cnc1Oc1cccc(F)c1)c1ccc(C(=O)O)cc1 [Compound B] was run?
A: Its value is “less than that of the vehicle group”.

Q: What about the “percentage of dendritic cells (CD45, CD11c positive)” value (CT-26 tumors; FIG. 7b) of the same molecule?
A: Its value is “increased percentage”.

Q: What about the “regulatory T cells (CD45, CD4, FoxP3, CD25 positive)” value (CT-26 tumors; versus vehicle, FIG. 7a) of the same molecule?
A: Its value is “significant decrease”.

Q: What about the “tumor growth kinetics during the period of dosing” value (4T1 mouse breast cancer [2]) of the same molecule?
A: Its value is “decreased relative to the vehicle treated mice”.

Q: What about the “tumor growth kinetics during the period of dosing” value (4T1 mouse breast cancer [3]) of the same molecule?
A: Its value is “less than that of the vehicle group and anti-PD1 when dosed alone”.

Q: What about the mice still alive [4, 5] of the same molecule?
A: The mice still alive was 1 out of 10.

Q: And the mice tumor free [4, 5]?
A: Its mice tumor free is 1 out of 10.

Q: And the “tumor growth kinetics during the period of dosing” value ([4]; CT-26 tumors, Compound B 15 mg/kg QD and BID p.o., anti-PD-1 10 mg/kg i.p., n=10/group, FIG. 1)?
A: Its value is “not notably different from the vehicle treated mice”.

Q: What about the “growth of re-inoculated CT26 in complete responders” value (CT26 tumor cells) of the same molecule?
A: Its value is “decreased the growth of CT26 relative to naive mice”.
